Test results published in patent publication US20250302832A1, “PYRAZINE DERIVATIVES AND USES THEREOF” (FOGHORN THERAPEUTICS INC., priority 2022, published 2025).

Assays:
[1] = molecular target: T1, HiBit-BRM fusion protein (Homo sapiens, UniProt P51531); test: HiBiT-BRM cell-based degradation assay (Nano-Glo HiBiT lytic detection, 24 h); details: HeLa cell line expressing HiBiT-BRM; for DC50: read-out: BRM HiBit Degradation IC50
T1 construct: expressed in transfected cells
Experimental: (§1) Procedure: A stable HeLa cell line expressing HiBiT-BRM was generated. On day 0, 5000 cells were seeded in 40 μL of media into each well of 384-well cell culture plates. On day 1, cells were treated with 120 nL DMSO or 120 nL of 3-fold serially DMSO-diluted compounds (10 points in duplicate with 30 μM as final top dose). Subsequently plates were incubated for 24 h in a standard tissue culture incubator and equilibrated at room temperature for 15 minutes. Nano-GB HiBiT Lytic Detection System (Promega N3050) reagent was freshly prepared and 20 ul was added to each well. Upon addition of this LgBit-containing reagent, the HiBiT and LgBiT proteins associate to form the luminescent NanoBiT luciferase. The plates were shaken for 10 minutes at room temperature and the bioluminescence read using an EnVision plate reader (PerkinElmer).
(§2) The degradation % was calculated using the following formula: % degradation=100%−100%×(Lumsample−LuMLC)/(LuMHC−LuMLC). DMSO treated cells are employed as High Control (HC) and 2 μM of a known BRM/BRG1 degrader standard treated cells are employed as Low Control (LC).

[2] = molecular target: T2, HiBit-BRG1 fusion protein (Homo sapiens, UniProt P51532); test: HiBiT-BRG1 cell-based degradation assay (Nano-Glo HiBiT lytic detection, 24 h); details: HeLa cell line expressing HiBit-BRG1 and LgBit; for Dmax: read-out: BRG1 HiBit Degradation Maximum (%); for DC50: read-out: BRMG1 HiBit Degradation IC50
T2 construct: expressed in transfected cells
T2 sequence (P51532 whole entry, the tested form may be a part): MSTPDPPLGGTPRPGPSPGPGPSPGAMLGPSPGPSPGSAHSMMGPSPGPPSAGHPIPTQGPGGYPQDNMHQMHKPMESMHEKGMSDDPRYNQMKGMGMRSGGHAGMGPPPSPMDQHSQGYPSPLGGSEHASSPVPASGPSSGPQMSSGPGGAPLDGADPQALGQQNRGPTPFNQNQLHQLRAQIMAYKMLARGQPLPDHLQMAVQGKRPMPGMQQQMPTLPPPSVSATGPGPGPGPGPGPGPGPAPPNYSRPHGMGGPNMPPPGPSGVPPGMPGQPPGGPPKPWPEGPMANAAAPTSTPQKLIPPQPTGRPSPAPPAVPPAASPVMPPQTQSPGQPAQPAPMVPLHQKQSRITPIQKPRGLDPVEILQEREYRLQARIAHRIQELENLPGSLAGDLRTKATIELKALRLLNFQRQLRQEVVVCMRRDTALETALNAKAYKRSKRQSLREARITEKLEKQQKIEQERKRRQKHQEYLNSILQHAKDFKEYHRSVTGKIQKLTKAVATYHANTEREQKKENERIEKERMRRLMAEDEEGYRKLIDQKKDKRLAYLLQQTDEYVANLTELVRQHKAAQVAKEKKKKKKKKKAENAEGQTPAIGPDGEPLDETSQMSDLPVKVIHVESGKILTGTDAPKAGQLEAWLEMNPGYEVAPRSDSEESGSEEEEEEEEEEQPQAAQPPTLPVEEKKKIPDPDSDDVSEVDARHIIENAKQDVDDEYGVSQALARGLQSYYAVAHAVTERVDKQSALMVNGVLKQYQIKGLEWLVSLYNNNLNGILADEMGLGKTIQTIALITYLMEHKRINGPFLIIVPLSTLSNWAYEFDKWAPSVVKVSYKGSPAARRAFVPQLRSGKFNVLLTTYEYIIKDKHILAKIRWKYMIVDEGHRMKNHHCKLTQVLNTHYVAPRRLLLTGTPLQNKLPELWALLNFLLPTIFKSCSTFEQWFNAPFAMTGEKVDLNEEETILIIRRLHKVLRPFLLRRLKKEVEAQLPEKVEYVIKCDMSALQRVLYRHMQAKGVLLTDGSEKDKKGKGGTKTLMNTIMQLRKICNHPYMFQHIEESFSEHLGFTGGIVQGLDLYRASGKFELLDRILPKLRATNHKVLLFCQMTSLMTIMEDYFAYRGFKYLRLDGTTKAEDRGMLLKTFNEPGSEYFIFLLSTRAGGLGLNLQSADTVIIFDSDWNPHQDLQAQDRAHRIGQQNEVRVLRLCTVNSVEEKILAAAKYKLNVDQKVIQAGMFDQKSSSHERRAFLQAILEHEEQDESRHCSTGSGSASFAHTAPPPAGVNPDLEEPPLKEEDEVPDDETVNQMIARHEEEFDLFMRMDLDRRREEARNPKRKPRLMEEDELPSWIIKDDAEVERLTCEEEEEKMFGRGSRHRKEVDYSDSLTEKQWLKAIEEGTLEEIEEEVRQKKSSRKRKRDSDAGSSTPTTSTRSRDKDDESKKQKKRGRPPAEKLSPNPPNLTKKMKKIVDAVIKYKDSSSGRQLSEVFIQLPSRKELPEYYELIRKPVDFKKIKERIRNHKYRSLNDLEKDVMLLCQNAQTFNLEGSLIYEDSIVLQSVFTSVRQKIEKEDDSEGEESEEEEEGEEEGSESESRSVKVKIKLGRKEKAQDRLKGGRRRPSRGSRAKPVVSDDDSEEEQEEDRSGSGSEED
Experimental: as §1, with “On day 1, cells were treated with 120 nL DMSO or 120 nL of 3-fold serially DMSO-diluted compounds (10 points in duplicate with 30 μM as final top dose).” left out
For measurement of BRG1 degradation, a stable HeLa cell line expressing HiBit-BRG1 and LgBit was generated. The same protocol as above was then followed.
as §2

T1 sequence (P51531 whole entry, the tested form may be a part): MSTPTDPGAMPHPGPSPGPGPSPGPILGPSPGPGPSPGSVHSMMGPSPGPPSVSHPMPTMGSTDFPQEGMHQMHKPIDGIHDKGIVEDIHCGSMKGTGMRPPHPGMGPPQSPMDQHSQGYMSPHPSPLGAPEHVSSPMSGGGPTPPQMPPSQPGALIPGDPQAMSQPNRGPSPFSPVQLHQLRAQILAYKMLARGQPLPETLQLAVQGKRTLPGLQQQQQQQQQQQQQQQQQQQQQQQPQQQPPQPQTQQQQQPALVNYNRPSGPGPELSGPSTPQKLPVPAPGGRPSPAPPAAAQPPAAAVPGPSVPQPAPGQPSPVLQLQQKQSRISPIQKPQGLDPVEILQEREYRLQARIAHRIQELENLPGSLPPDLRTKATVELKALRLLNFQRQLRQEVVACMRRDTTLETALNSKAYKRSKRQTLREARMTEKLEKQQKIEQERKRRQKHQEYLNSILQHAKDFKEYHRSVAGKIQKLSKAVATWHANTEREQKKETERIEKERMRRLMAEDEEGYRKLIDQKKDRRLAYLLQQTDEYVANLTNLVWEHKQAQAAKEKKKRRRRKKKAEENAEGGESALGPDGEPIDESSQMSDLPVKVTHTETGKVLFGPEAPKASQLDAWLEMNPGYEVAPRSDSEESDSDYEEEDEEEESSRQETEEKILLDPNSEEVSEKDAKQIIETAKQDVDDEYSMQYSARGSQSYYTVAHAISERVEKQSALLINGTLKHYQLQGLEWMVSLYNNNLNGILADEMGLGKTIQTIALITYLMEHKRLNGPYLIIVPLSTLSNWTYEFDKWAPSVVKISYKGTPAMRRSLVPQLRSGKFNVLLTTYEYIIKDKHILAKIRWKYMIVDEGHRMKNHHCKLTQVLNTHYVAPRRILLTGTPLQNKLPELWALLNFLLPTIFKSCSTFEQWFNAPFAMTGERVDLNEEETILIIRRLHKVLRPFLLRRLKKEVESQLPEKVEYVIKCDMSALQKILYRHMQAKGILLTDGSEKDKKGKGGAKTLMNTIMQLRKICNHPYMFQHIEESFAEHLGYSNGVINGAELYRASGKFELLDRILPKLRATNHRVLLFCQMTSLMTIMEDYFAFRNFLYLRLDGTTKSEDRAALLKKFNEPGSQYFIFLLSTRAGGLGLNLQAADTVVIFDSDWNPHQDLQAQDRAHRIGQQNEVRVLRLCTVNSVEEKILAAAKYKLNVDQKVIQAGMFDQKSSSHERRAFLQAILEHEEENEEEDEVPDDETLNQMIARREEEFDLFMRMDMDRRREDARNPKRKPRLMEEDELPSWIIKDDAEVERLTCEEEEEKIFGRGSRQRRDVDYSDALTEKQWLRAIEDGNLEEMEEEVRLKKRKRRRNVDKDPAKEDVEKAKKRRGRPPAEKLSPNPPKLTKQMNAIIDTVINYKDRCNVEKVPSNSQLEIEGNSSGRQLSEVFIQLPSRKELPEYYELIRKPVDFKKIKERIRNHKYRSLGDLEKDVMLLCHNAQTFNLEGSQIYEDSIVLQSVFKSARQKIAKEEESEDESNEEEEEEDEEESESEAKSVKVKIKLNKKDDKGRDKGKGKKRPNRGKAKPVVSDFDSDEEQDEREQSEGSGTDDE

Structure (SMILES) | BRM HiBit Degradation Maximum (%) [1] | DC50 [1] [nM] | Dmax [2] [%] | DC50 [2] [nM]
Cc1ncsc1-c1ccc([C@H](C)NC(=O)[C@@H]2C[C@@H](O)CN2C(=O)[C@@H](c2cc(-c3cc(N4CC[C@@H](c5cc6nnc(-c7ccccc7O)cc6n5C5CC5)C4)ccn3)no2)C(C)C)cc1 (single isomer, unassigned) [Compound 91] | A (“A” indicates maximum degradation ≥75%) | > 10 | < 50 | –
Cc1cc(-c2cc([C@H](C(=O)N3C[C@H](O)C[C@H]3C(=O)N[C@@H](C)c3ccc(-c4scnc4C)cc3)C(C)C)on2)cnc1N1CC[C@H](c2cc3nnc(-c4ccccc4O)cc3n2C2CC2)C1 (single isomer, unassigned) [Compound 110] | A (“A” indicates maximum degradation ≥75%) | < 10 | < 50 | –
Cc1ncsc1-c1ccc([C@H](C)NC(=O)[C@@H]2C[C@@H](O)CN2C(=O)[C@@H](c2cc(OCCN3CC(c4cc5nnc(-c6ccccc6O)cc5[nH]4)C3)no2)C(C)C)cc1 [Compound 1, (2S,4R)-4-hydroxy-1-[(2R)-2-[3-(2-{3-[3-(2-hydroxyphenyl)-5H-pyrrolo[3,2-c]pyridazin-6-yl]azetidin-1-yl}ethoxy)-1,2-oxazol-5-yl]-3-methylbutanoyl]-N-[(1S)-1-[4-(4-methyl-1,3-thiazol-5-yl)phenyl]ethyl]pyrrolidine-2-carboxamide] | A (“A” indicates maximum degradation ≥75%) | > 10 | > 75 | > 100
Cc1ncsc1-c1ccc([C@H](C)NC(=O)[C@@H]2C[C@@H](O)CN2C(=O)[C@@H](c2cc(N(C)CCN3CC(c4cc5nnc(-c6ccccc6O)cc5[nH]4)C3)no2)C(C)C)cc1 [Compound 2, (2S,4R)-4-hydroxy-1-((R)-2-(3-((2-(3-(3-(2-hydroxyphenyl)-5H-pyrrolo[3,2-c]pyridazin-6-yl)azetidin-1-yl)ethyl)(methyl)amino)isoxazol-5-yl)-3-methylbutanoyl)-N-((S)-1-(4-(4-methylthiazol-5-yl)phenyl)ethyl)pyrrolidine-2-carboxamide] | A (“A” indicates maximum degradation ≥75%) | > 100 | < 50 | –
Cc1ncsc1-c1ccc([C@H](C)NC(=O)[C@@H]2C[C@@H](O)CN2C(=O)[C@@H](c2cc(OCCCN3CC(c4cc5nnc(-c6ccccc6O)cc5[nH]4)C3)no2)C(C)C)cc1 [Compound 3, (2S,4R)-4-hydroxy-1-((R)-2-(3-(3-(3-(3-(2-hydroxyphenyl)-5H-pyrrolo[3,2-c]pyridazin-6-yl)azetidin-1-yl)propoxy)isoxazol-5-yl)-3-methylbutanoyl)-N-((S)-1-(4-(4-methylthiazol-5-yl)phenyl)ethyl)pyrrolidine-2-carboxamide, formic acid] | B (“B” indicates maximum degradation ≥50%) | > 1000 | – | –
Cc1ncsc1-c1ccc([C@H](C)NC(=O)[C@@H]2C[C@@H](O)CN2C(=O)[C@@H](c2cc(N3CCC(CN4CC(c5cc6nnc(-c7ccccc7O)cc6[nH]5)C4)CC3)no2)C(C)C)cc1 [Compound 4, (2S,4R)-4-hydroxy-1-((R)-2-(3-(4-((3-(3-(2-hydroxyphenyl)-5H-pyrrolo[3,2-c]pyridazin-6-yl)azetidin-1-yl)methyl)piperidin-1-yl)isoxazol-5-yl)-3-methylbutanoyl)-N-((S)-1-(4-(4-methylthiazol-5-yl)phenyl)ethyl)pyrrolidine-2-carboxamide] | A (“A” indicates maximum degradation ≥75%) | > 10 | > 50 | > 100
Cc1ncsc1-c1ccc([C@H](C)NC(=O)[C@@H]2C[C@@H](O)CN2C(=O)[C@@H](c2cc(N3CCC(N4CC(c5cc6nnc(-c7ccccc7O)cc6[nH]5)C4)CC3)no2)C(C)C)cc1 [Compound 5, (2S,4R)-4-hydroxy-1-((R)-2-(3-(4-(3-(3-(2-hydroxyphenyl)-5H-pyrrolo[3,2-c]pyridazin-6-yl)azetidin-1-yl)piperidin-1-yl)isoxazol-5-yl)-3-methylbutanoyl)-N-((S)-1-(4-(4-methylthiazol-5-yl)phenyl)ethyl)pyrrolidine-2-carboxamide] | A (“A” indicates maximum degradation ≥75%) | < 10 | > 75 | > 100
Cc1ncsc1-c1ccc([C@H](C)NC(=O)[C@@H]2C[C@@H](O)CN2C(=O)[C@@H](c2cc(N3CCC(C(=O)N4CC(c5cc6nnc(-c7ccccc7O)cc6[nH]5)C4)CC3)no2)C(C)C)cc1 [Compound 6] | A (“A” indicates maximum degradation ≥75%) | > 10 | > 75 | > 100
Cc1ncsc1-c1ccc([C@H](C)NC(=O)[C@@H]2C[C@@H](O)CN2C(=O)[C@@H](c2cc(OCC(=O)N3CC(c4cc5nnc(-c6ccccc6O)cc5[nH]4)C3)no2)C(C)C)cc1 [Compound 7, (2S,4R)-4-hydroxy-1-((R)-2-(3-(2-(3-(3-(2-hydroxyphenyl)-5H-pyrrolo[3,2-c]pyridazin-6-yl)azetidin-1-yl)-2-oxoethoxy)isoxazol-5-yl)-3-methylbutanoyl)-N-((S)-1-(4-(4-methylthiazol-5-yl)phenyl)ethyl)pyrrolidine-2-carboxamide] | A (“A” indicates maximum degradation ≥75%) | > 100 | < 50 | –
Cc1ncsc1-c1ccc([C@H](C)NC(=O)[C@@H]2C[C@@H](O)CN2C(=O)[C@@H](c2cc(OCCN3CC(c4cc5nnc(-c6ccccc6O)cc5n4C)C3)no2)C(C)C)cc1 [Compound 8, (2S,4R)-4-hydroxy-1-((R)-2-(3-(2-(3-(3-(2-hydroxyphenyl)-5-methyl-5H-pyrrolo[3,2-c]pyridazin-6-yl)azetidin-1-yl)ethoxy)isoxazol-5-yl)-3-methylbutanoyl)-N—((S)-1-(4-(4-methylthiazol-5-yl)phenyl)ethyl) pyrrolidine-2-carboxamide] | A (“A” indicates maximum degradation ≥75%) | < 10 | > 75 | > 10
Cc1ncsc1-c1ccc([C@H](C)NC(=O)[C@@H]2C[C@@H](O)CN2C(=O)[C@@H](c2cc(N3CCC(CN4CC(c5cc6nnc(-c7ccccc7O)cc6n5C)C4)CC3)no2)C(C)C)cc1 [Compound 9, (2S,4R)-4-hydroxy-1-((R)-2-(3-(4-((3-(3-(2-hydroxyphenyl)-5-methyl-5H-pyrrolo[3,2-c]pyridazin-6-yl)azetidin-1-yl)methyl)piperidin-1-yl)isoxazol-5-yl)-3-methylbutanoyl)-N-((S)-1-(4-(4-methylthiazol-5-yl)phenyl)ethyl)pyrrolidine-2-carboxamide] | A (“A” indicates maximum degradation ≥75%) | > 10 | < 50 | –
Cc1ncsc1-c1ccc([C@H](C)NC(=O)[C@@H]2C[C@@H](O)CN2C(=O)[C@@H](c2cc(N(C)CCN3CC(c4cc5nnc(-c6ccccc6O)cc5n4C)C3)no2)C(C)C)cc1 [Compound 10, (2S,4R)-4-hydroxy-1-((R)-2-(3-((2-(3-(3-(2-hydroxyphenyl)-5-methyl-5H-pyrrolo[3,2-c]pyridazin-6-yl)azetidin-1-yl)ethyl)(methyl)amino)isoxazol-5-yl)-3-methylbutanoyl)-N-((S)-1-(4-(4-methylthiazol-5-yl)phenyl)ethyl)pyrrolidine-2-carboxamide] | A (“A” indicates maximum degradation ≥75%) | > 10 | > 50 | > 1000
